According to article PMC2999418, “Biological Activity and Binding Site Characteristics of the PA1b Entomotoxin on Insects from Different Orders” (Journal of Insect Science, 2007):
Where two headings read alike, the source gives them in different places.

What was measured:
Sitophilus granarius = assay: Toxicity assay on cereal weevil adults, toxin in food, survival analysis; type: in vivo; details: S. granarius Brayard strain
Protocol: (§1) Cereal weevils (Sitophilus oryzae, S. zeamais and S. granarius, Coleoptera) were reared for more than 10 years in our laboratory on wheat seeds at […] 70% RH. Resistant strains were reared on pea seeds. Tests and survival analysis were performed on adults, as fully described in Louis et al ([2004]).
(§2) All toxicity assays were carried out using a mixture of PA1b isoforms (98% purity by HPLC). All tests were performed on at least 30 insects for assays and for control test (without toxin), except for the three aphid species (50 insects) and for Trichogramma (more than 300 eggs by assays). When adults were used, the insects were synchronized at the imaginal molt. The statistical analyses were performed using the JMP software (SAS, Grégy-sur-Yerres FRA).

Sitophilus oryzae = assay: as above; type: in vivo; details: dose-response, PA1b isoform mixture in food, confidence interval in brackets
Protocol: as §1, §2

Sitophilus zeamais = assay: as above; type: in vivo; details: S. zeamais LS strain, day 7, confidence interval in brackets
Protocol: as §1, §2

Harmonia axyridis = assay: Ladybeetle development and survival on artificial diet supplemented with toxin; type: in vivo; details: 250 µg/g of food
Protocol: The ladybeetle Harmonia axyridis (Coleoptera) was grown on a pork liver-based artificial diet (Specty et al., unpublished results), and tests were performed using a diet supplemented with the toxin. The development was monitored from L3 up to the pupal stage.
as §2
Figure 1. Effects of PA1b on the lady beetle H. axyridis. Tests were done with artificial diet supplemented with the toxin (250 µg/g), and the development of the insects was monitored daily. First bar, control insects; second bar, tested insects. P, Pupae; pP, Pre-pupae; L4,4th instar larvae; L3, 3rd instar larvae.

Mamestra brassicae = assay: Cabbage moth larval toxicity test on artificial medium with toxin; type: in vivo; details: 1000 µg PA1b per g of diet, larvae L1 to pupa; data not shown
Protocol: The cabbage moth Mamestra brassicae (Lepidoptera) was grown on the artificial medium described by Poitout and Bues ([1974]). PA1b was added to this media and the mortality of larvae (from L1 to pupa) was monitored daily.
as §2

Trichogramma pretiosum = assay: Trichogramma development from eggs to adults on artificial diet with toxin; type: in vivo; details: PA1b added to artificial diet; no difference in developmental times compared to control
Protocol: Trichogramma pretiosium. T191 (Hymenoptera) were grown using the artificial diet described in Grenier et al. ([1998]). The toxin was incorporated into the diet, and the development of insects was monitored from eggs to adults.
as §2

Acyrthosiphon pisum = assay: Aphid growth and toxicity assay on artificial diet with toxin; type: in vivo; details: after six days feeding
Protocol: (§3) Growth and toxicity assays were carried out on the aphids Aphis gossypii, Myzus persicae and Acyrthosiphon pisum, Hemiptera, according to Rahbé and Febvay ([1993]). Larvae of the fruit fly Drosophila melanogaster, Diptera, were provided by Dr. Allemand (UMR 5558 CNRS-UCBL, Lyon, France).
as §2
(§4) Figure 2. Effects of PA1b on three aphid species. Tests were carried out with artificial diet supplemented with the toxin at increasing concentrations, and mortality of the insects was monitored daily (relative larval survival is used in the graph). Circle : A. pisum; Square : M. persicae; Triangle : A. gossypii.

Aphis gossypii = assay: as above; type: in vivo; details: 1000 µg.ml^-1 in artificial diet
Protocol: as §3, §2, §4

Myzus persicae = assay: as above; type: in vivo; details: doses up to 1000 µg.ml^-1 in artificial diet
Protocol: as §3, §2, §4

[1] = target: PA1b binding protein on membrane extracts; assay: 125I-PA1b binding (competition) on insect membrane extracts; design: species or system Aphis gossypii; details: A. gossypii membrane extracts; competition with purified 3741 isoform
Protocol: (§5) The isolation of membrane proteins for binding studies was performed as described by Gressent et al. ([2003]). For PA1b degradation tests, insect extracts were prepared as follows, 1 g of insects were ground with a mortar and pestle in liquid nitrogen. The resulting powder was resuspended in 2 ml of extraction buffer (20 mM Tris-HCl pH 8; 0.25 M sucrose; 2 mM MgCl2). The slurry was centrifuged for 2 min at 1000 g, and the supernatant was stored at -2O°C until required. All the operations were performed at 4°C.
(§6) The peptidic toxin PA1b-3471 isoform was labelled with I^125 to a specific radioactivity of about 900 Ci.mmor^-1, and then used for binding studies with membrane extracts, according to Gressent et al. ([2003]).
(§7) PA1b binding activity was present in all insect species, except for the resistant weevil strains and the pea specific pest Bruchus pisorum, regardless of the sensitivity or insensitivity of these insects to PA1b toxicity, as evaluated from our insect bioassays. […] The relative abundance of the binding sites was also slightly different in this group of species, varying from 10 pmol/mg of protein for T. pretiosum to a maximum of 79 pmol/mg of protein for M. persicae.

[2] = target: PA1b binding protein on membrane extracts; assay: as above; design: species or system Acyrthosiphon pisum; details: A. pisum membrane extracts; competition with purified 3741 isoform
Protocol: as §5, §6, §7

Ephestia kuehniella = details: ref Delobel et al 1998; cited from earlier work
Protocol: Ephestia kuehniella was previously found to be sensitive to the toxin ([Delobel et al 1998]). In contrast, 1000 µg PA1b per g of diet had no effect on the cabbage moth Mamestra brassicae, either on the mortality or on the development and ecdysis of the insects (data not shown).

Drosophila melanogaster = details: cited from earlier work
Protocol: However, diet is not sufficient alone to explain insensitivity, as the three aphid species tested were assayed on the same artificial diet with very different results. We can thus suppose ...

[3] = target: PA1b binding protein on membrane extracts; details: ref Gressent et al (2003), cited from earlier work
Source text: Table 1. Affinity (Kd) and relative abundance (Bmax) of the PA1b binding protein on membrane extracts from different insect species and strains. | column: Kd (nM); Bmax (pmol/mg of protein) || Data obtained from competition experiments, using the purified […] isoform as competitor, are shown in Table 1. PA1b binding activity was present in all insect species, except for the resistant weevil strains and the pea specific pest Bruchus pisorum, regardless of the sensitivity or insensitivity of these insects to PA1b toxicity, as evaluated from our insect bioassays. […] The relative abundance of the binding sites was also slight ...

Sequence: ASCNGVCSPFEMPPCGTSACRCIPVGLVIGYCR NPSG (bicyclic or more) [PA1b, plant peptide of 37 amino acids purified from pea (Pisum sativum) seeds; entomotoxic cystine-knot peptide with three disulfide bonds]
- mortality (Sitophilus granarius; highest tested dose 1000 µg/g): 27%
- LD50 estimated by extrapolation (Sitophilus granarius; extrapolated, without confidence interval): ca. 3500 µg/g
- LD50 at day 7 (Sitophilus oryzae; S. oryzae strain Bouriz, adults): 501 [281–984] µg/g
- LD50 at day 7 (Sitophilus oryzae; S. oryzae strain Bénin, adults): 446 [251–1584] µg/g
- LD50 at day 7 (Sitophilus oryzae; S. oryzae strain WAA42, adults): 489 [290–1318] µg/g
- LC50 (Sitophilus zeamais): 234 [125–630] µg/g
- share of survivors that reached the pupal stage (Harmonia axyridis; by day 12): half
- insects that reached the L4 stage (Harmonia axyridis; started on L3 larvae, after three days (all control insects reached L4)): 30%
- survival (Harmonia axyridis; started on L3 larvae, by day 12 (control 75%)): 15%
- effect on mortality, development and ecdysis (Mamestra brassicae): no effect
- growth and development from eggs to adults (Trichogramma pretiosum): normal growth
- mortality (Acyrthosiphon pisum; 150 µg.ml^-1 in artificial diet): 57%
- mortality (Acyrthosiphon pisum; 500 µgml^-1 in artificial diet): total
- lethality (Aphis gossypii): 37%
- mortality (Myzus persicae): no mortality
- Kd [1]: 0.039 µM
- Kd [2]: 0.058 µM
- sensitivity to the toxin (Ephestia kuehniella): sensitive
- toxicity to larvae grown on a fruit-based mixture (Drosophila melanogaster; fruit-based mixture diet, dose similar to that used on other insects, delayed larval development, increased larval mortality, ref Gressent, unpublished results): significantly toxic
- sensitivity to the toxin (Drosophila melanogaster; ref Delobel et al.1998): insensitive
- Kd / binding ([3]; S. oryzae resistant strains Mex1, GV, China, ISOR3, membrane extracts): no binding detectable
- Kd ([3]; S. oryzae strains WAA42, Benin, Bouriz, membrane extracts): 0.002 to 0.0045 µM
